Measured values: ChEMBL document CHEMBL1201862, “PubChem BioAssay data set” (2004)
The source made the active and inactive calls.

Key:
H9c2 = test: cells; assay type: functional, cell-based; settings: Rattus norvegicus, H9c2, Myocardium;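 also: confirmatory concentration-response retest of ultra-high-throughput screening hits for modulation of myocardial damage; cell death induced by hydrogen peroxide oxidative stress; compound pretreatment for 60 min then peroxide exposure for 2 h; potency is for protecting the cells against peroxide damage rather than for killing them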
[1] = loss of viability in HepG2 cells – cell-based, CellTiter-Glo, cherry-picked, cytotoxicity control for Shn3 inhibitor project, dose response (AID 624134); assay type: functional
[2] = non-specific 3'UTR reporter inhibition in Clone20-Shn3RL – cell-based, Renilla luciferase, cherry-picked, counter-screen for Shn3 inhibitor project, dose response (AID 624133); assay type: functional
[3] = reduction of Shn3 3'UTR-driven luciferase in osteoblasts – cell-based, Clone20 osteoblasts, firefly luciferase, cherry-picked, dose response (AID 624132); assay type: functional;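 also: firefly luciferase luminescence from reporter carrying the Shn3 3'UTR in osteoblasts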
[4] = luciferase reporter signal suppression in cells – H4 neuroglioma cells, luminescence, dose response (AID 1990); assay type: functional, cell-based
[5] = system: Streptococcus sp. 'group A'; test: Streptococcus pyogenes SK(-)GAS viability under kanamycin – luminescence, BacTiterGlo, confirmation, counter-screen for streptokinase expression inhibitor project, dose response (AID 1900); assay type: functional, organism-based
[6] = Luminescence Cell-Based Dose Response HTS to Identify Inhibitors of 5'UTR Stem-Loop Driven Prion Protein mRNA Translation in H4 Neuroglioblastoma Cells. [Related pubchem assays: 1827 (Project Summary), 1813 (Primary HTS)]; assay type: functional
[7] = alpha-synuclein stem-loop luciferase translation blockers – H4 neuroglioma cells, luminescence, confirmation (AID 1988); assay type: functional, cell-based
Streptokinase A = biological target: T1, Streptokinase A (Streptococcus pyogenes serotype M1, UniProt P10520); test: viability-normalized secreted streptokinase activity reduction – plasminogen activation absorbance, OD405, dose response (AID 1914); assay type: functional, Streptococcus pyogenes M1 GAS;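 also: secreted streptokinase activity via plasminogen activation per viability signal from cell pellet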
T1 sequence (P10520 whole entry): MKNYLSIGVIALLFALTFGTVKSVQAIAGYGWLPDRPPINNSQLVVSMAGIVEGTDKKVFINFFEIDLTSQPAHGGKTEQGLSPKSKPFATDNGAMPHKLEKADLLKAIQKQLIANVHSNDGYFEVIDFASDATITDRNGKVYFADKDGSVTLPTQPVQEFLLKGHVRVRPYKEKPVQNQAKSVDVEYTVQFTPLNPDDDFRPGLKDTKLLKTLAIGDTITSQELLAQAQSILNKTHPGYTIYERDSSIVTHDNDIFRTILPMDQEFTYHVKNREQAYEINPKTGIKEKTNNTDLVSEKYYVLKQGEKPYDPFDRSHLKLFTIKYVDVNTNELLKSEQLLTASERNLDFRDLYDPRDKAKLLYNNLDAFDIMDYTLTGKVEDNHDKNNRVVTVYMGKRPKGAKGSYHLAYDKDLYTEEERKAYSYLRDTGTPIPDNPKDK

[8] = Trypanosoma cruzi growth suppression in host cells – NIH3T3 host cells, beta-gal luminescence, confirmation (AID 2044); assay type: functional, cell-based;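 also: intracellular parasites grown in NIH/3T3 mouse fibroblasts as host cells; luminescent beta-galactosidase reporter signal from transgenic T. cruzi replicating inside host cells; inhibitors lower the luminescence signal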
[9] = NIH3T3 cell viability loss – ATP luminescence, mouse fibroblasts, counter-screen, dose response (AID 2010); assay type: functional, cell-based;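 also: cells exposed to compound for about 90 hours before reading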
Streptococcus = test: GAS UMAA2166 growth inhibition – luminescence, BacTiterGlo, counter-screen for streptokinase expression inhibitor project, dose response (AID 1915); assay type: functional, organism-based;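 also: potency for reduction of bacterial viability or growth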
INS1 = test: INS-1E survival protection against cytokine death – cell-based, luminescence, retest, dose response (AID 449756); assay type: functional; settings: Rattus norvegicus;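 also: cell death triggered by IL-1 beta plus TNF-alpha plus IFN-gamma mixture; protective hits raise ATP signal compared with cytokine alone wells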
[10] = NIH-3T3 fibroblast cytotoxicity, dose response, cytotoxicity control, cell-based, fluorescence, Alamar Blue, secondary assay (AID 2327); assay type: functional;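 also: NIH-3T3 mouse fibroblasts cultured with fluconazole at 8 µg/mL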
[11] = fluconazole-exposed Candida albicans growth modulators – fluorescence, retest, confirmation (AID 2467); assay type: functional, cell-based
[12] = biological target: T2, Heat shock factor protein 1 (Mus musculus, UniProt P38532); test: enhancement of HSF1-driven luciferase signal – cell-based, NIH3T3, luminescence, dose retest, confirmation (AID 435004); assay type: functional;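 also: stress induced by proteasome inhibitor MG132 added 30 min after compound; luciferase reporter driven by HSF1 response element in NIH3T3 cells; actives raise luminescence as potentiators of the MG132 stress response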
T2 sequence (P38532 whole entry): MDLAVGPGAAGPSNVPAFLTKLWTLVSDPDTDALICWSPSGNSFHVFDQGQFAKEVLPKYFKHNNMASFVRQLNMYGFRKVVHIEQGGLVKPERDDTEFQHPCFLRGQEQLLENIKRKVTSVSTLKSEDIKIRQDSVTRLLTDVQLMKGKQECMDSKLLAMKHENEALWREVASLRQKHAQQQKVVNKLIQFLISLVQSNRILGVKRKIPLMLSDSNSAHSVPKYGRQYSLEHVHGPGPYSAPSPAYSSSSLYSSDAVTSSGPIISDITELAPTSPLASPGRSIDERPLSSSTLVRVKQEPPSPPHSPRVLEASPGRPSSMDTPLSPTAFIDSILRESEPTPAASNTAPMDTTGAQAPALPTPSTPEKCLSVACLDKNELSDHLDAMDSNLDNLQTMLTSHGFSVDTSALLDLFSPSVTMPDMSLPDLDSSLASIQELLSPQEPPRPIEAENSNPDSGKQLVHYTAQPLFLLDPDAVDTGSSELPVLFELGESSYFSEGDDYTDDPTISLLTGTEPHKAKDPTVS

Cytochrome P450 2D6 = Cytochrome P450 2D6 (Homo sapiens, UniProt P10635);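 also: CYP2D6 member of a cytochrome P450 panel assay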
Nonstructural protein 1 = Nonstructural protein 1 (Influenza A virus, UniProt Q194T2); assay type: functional, Influenza A virus (A/California/07/2009(H1N1))
Nonstructural protein 1, sequence (Q194T2 whole entry): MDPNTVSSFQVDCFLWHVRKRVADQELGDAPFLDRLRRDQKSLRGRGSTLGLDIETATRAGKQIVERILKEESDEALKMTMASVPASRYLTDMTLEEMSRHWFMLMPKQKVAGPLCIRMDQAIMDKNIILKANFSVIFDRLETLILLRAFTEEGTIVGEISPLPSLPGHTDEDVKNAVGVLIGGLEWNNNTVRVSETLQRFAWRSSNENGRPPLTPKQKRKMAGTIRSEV

Cytochrome P450 2D6, sequence (P10635 whole entry): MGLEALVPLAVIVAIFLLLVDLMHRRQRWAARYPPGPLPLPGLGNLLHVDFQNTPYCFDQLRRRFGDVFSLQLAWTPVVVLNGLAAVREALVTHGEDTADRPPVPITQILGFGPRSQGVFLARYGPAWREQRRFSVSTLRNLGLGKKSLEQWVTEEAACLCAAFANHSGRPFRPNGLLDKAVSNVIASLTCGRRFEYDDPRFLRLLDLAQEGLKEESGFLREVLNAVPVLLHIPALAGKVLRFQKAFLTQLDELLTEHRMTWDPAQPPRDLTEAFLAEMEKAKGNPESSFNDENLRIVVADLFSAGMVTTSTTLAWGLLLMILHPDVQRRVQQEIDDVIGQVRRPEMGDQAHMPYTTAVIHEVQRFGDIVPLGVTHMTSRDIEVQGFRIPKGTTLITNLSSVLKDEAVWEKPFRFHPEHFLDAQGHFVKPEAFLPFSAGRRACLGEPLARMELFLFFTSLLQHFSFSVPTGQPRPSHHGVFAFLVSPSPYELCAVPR

SMILES	IC50 (H9c2)	AC50 [1]	AC50 [2]	EC50 [12]	other results
O=C(NCC(=O)N(Cc1cccs1)C(C(=O)NC1CCCCC1)c1ccco1)c1ccco1 (stereo unspecified)	7.48 µM (active)	–	–	–	–
Cc1ccc(NC(=O)CN(C)C(=O)COc2cc(F)ccc2[N+](=O)[O-])cc1	–	> 70 µM (inactive)	16.2 µM (active)	–	–
CN(C)C1=NC[C@H](Cc2ccccc2)N1CCCCc1ccccc1	–	58.9 µM (active)	4.5 µM (active)	–	AC50 [3]: 8.01 µM (active)
CCOC(=O)c1cc2c(=O)n3cccc(C)c3nc2n(CCCOC)/c1=N\C(=O)c1cccnc1	> 79 µM (inactive)	–	–	–	–
Cc1nnc2ccc(-c3cccc(NC(=O)c4ccc(Cl)nc4)c3)nn12	> 79 µM (inactive)	–	–	–	–
COc1cc(C)c(C(=O)CC(=O)c2c(C)cc(OC)cc2C)c(C)c1	–	> 70 µM (inactive)	21.8 µM (active)	–	EC50 [4]: 10.7 µM (active); EC50 [5]: 3.96 µM (active); EC50 [6]: 73.2 µM (active); EC50 [7]: > 120 µM (not active); EC50 (Streptokinase A): 68.7 µM (active); EC50 [8]: 2.67 µM (active); EC50 [9]: 6.5 µM (active); EC50 (Streptococcus): > 150 µM (not active); AC50 (INS1): 8.81 µM (active); AC50 [3]: 7.4 µM (active)
O=C1CCCN1CCCNc1c([N+](=O)[O-])nn(-c2ccc(Cl)cc2)[n+]1[O-]	–	–	–	26.5 µM (active)	EC50 [10]: 17 µM (active); EC50 [11]: > 38 µM (not active); EC50 [8]: 0.562 µM (active); EC50 [9]: > 60 µM (inconclusive)
O=C1Nc2cnc(Cl)nc2Nc2ccccc21	18.7 µM (active)	–	–	–	–
CS/C(=N\S(=O)(=O)c1ccccc1)c1ccccc1	> 79 µM (inactive)	–	–	–	–
Cc1cc(C(=O)COc2ccccc2C(N)=O)c(C)n1C	> 79 µM (inactive)	–	–	–	–
CC(=O)NCCNc1nc2c(-c3ccccc3)nnn2c2ccccc12	> 79 µM (inactive)	–	–	–	–
Nc1nc(Br)c2c(F)cccc2c1-c1ccc(Cl)cc1	–	–	–	> 260 µM (inactive)	AC50 (Cytochrome P450 2D6): 3.16 µM (inconclusive)
Fc1ccc(NC(S)=Nc2cc(Cl)ccc2Cl)cc1	–	–	–	> 260 µM (inactive)	–
Clc1ccc(SCc2csc(N3CCOCC3)n2)cc1	–	–	–	51.8 µM (active)	–
COc1cc(NC(=O)Cc2cccs2)ccc1-n1cnnn1	–	–	–	> 260 µM (inactive)	–
S=C(Nc1ccccc1)Nc1ccc(Cl)cn1	–	–	–	> 260 µM (inactive)	–
Oc1cc(-c2cccnc2)cc2cccnc12	–	10.9 µM (active)	4.04 µM (active)	–	IC50 (Nonstructural protein 1): 15.6 µM (active); AC50 [3]: 9.27 µM (active)
CC(C)C[C@H]1CNC(=S)N1CC1CCN(CC2CCC(C(C)(C)C)CC2)CC1 (stereo partly specified)	–	21.5 µM (active)	4.48 µM (active)	–	AC50 [3]: 4.05 µM (active)
CCOC(=O)c1c(NC(=O)C2c3ccccc3Oc3ccccc32)sc(C(C)=O)c1C	–	61.5 µM (active)	13.6 µM (active)	–	AC50 [3]: 4.67 µM (active)
CCCn1c(SCC(=O)c2cc(OC)ccc2OC)nnc1C(C)C	–	–	–	62.4 µM (active)	–
